# Results taken from patent US20260226073A1 (AURIGENE ONCOLOGY LIMITED, priority 2023, published 2026).
# Target: T1, human recombinant CBL-b (human Biotin CBL-b recombinant protein a.a. 39-426) (Homo sapiens, UniProt Q13191)
# T1 construct: human Biotin CBL-b recombinant protein a.a; 39-426; Biotin (biotinylated); made in house
# Experiment: Biochemical assay for CBL-b inhibition (ligand displacement TR-FRET)
# Type: binding
# Conditions: 50 nM CBL-b, 0.3 μM Bodipy FL-Probe, read-out: IC50 (CBL-b inhibition, group)
# Method: The inhibitory activity of the test compounds was assessed by Ligand displacement TR-FRET assay. The human recombinant CBL-b (human Biotin CBL-b recombinant protein a.a. 39-426; synthesised in-house) was diluted in enzyme assay buffer (20 mM HEPES, 150 mM NaCl, 0.01% Triton X, 0.01% BSA, 0.5 mM TCEP) in a 10 μl volume and plated in 384-well plates (Cat #781075, Greiner) to a final concentration of 50 nM. The enzyme/compound mixture was incubated at RT for 60 min. The Bodipy FL-Probe described in WO 2020/210508 (synthesized in-house) diluted in enzyme assay buffer was added to the plate and incubated for 60 min RT, the final probe concentration was 0.3 μM. After 60 min incubation, 10 μl of detection mix (Terbium Streptavidin, (Cat #PV3576, Invitrogen) diluted in 1× Lance buffer) was added and incubated for 60 min at room temperature. Time-resolved fluorescence (excitation, 320 nm; emission donor, 615 nm; emission acceptor, 665 nm) was monitored by using 2030 multilabel reader Victor5 (PerkinElmer). The IC50 (concentration for half maximal inhibition) and % maximum inhibition of the compounds were estimated by fitting the dose response data to a sigmoidal curve fitting equation using Graph pad Prism software V. 8.
# T1 sequence (Q13191 39-426): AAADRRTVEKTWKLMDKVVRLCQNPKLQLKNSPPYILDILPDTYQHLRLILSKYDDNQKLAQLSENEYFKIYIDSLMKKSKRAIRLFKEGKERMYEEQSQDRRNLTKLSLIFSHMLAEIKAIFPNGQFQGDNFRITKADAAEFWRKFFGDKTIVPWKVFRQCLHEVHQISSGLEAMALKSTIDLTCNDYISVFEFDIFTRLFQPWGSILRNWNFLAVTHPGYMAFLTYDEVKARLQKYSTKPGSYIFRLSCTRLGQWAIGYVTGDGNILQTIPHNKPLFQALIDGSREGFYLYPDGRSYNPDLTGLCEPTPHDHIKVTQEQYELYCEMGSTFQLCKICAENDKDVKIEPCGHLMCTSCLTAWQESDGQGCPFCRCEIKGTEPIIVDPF
row,Structure (SMILES),IC50 [nM]
1,"Cn1cnnc1CC1(c2ccc3c(c2)C(=O)N(c2cc(C(=O)N4CC[C@H](O)C4)cc(C(F)(F)F)n2)C3)COC1 [Compound 36, (S)-2-(4-(3-Hydroxypyrrolidine-1-carbonyl)-6-(trifluoromethyl)pyridin-2-yl)-6-(3-((4-methyl-4H-1,2,4-triazol-3-yl)methyl)oxetan-3-yl)isoindolin-1-one]",300 to 5000
2,Cc1cc(CNCC2CC2)cc(N2Cc3ccc(-c4ccc(Cl)cc4-c4nnc5ccccn45)cc3C2=O)n1 [Compound 268],300 to 5000
3,"Cn1cnnc1CC1(c2ccc3c(c2)C(=O)N(c2cc(CN4CC5(COC5)C4)cc(C(F)(F)F)n2)C3)COC1 [Compound 55, 2-(4-((2-Oxa-6-azaspiro[3.3]heptan-6-yl)methyl)-6-(trifluoromethyl)pyridin-2-yl)-6-(3-((4-methyl-4H-1,2,4-triazol-3-yl)methyl)oxetan-3-yl)isoindolin-1-one]",300 to 5000
4,"Cc1cc(CNCC(F)(F)F)cc(N2Cc3ccc(C4(Cc5nncn5C)COC4)cc3C2=O)c1 [Compound 22, 6-(3-((4-Methyl-4H-1,2,4-triazol-3-yl)methyl)oxetan-3-yl)-2-(3-methyl-5-(((2,2,2-trifluoroethyl)amino)methyl)phenyl)isoindolin-1-one]",300 to 5000
5,COCCN(Cc1cc(C)nc(N2Cc3ccc(-c4ccc(F)cc4-c4nncn4C)cc3C2=O)c1)CC1CC1 [Compound 313],300 to 5000
6,C[C@H]1CCCN(Cc2cc(Cl)nc(N3Cc4ccc(C(Cc5nncn5C)C5CCC5)cc4C3=O)c2)C1 (some centres unmarked) [Compound 173],300 to 5000
7,Cc1cc(CN[S+]([O-])C(C)(C)C)cc(N2Cc3ccc(-c4ccc(F)cc4-c4nncn4C)cc3C2=O)n1 (centres unmarked) [Compound 285],300 to 5000
8,CC1CCNC(c2cc(Cl)nc(N3Cc4ccc(C5(Cc6nncn6C)COC5)cc4C3=O)c2)C1 (centres unmarked) [Compound 249],300 to 5000
9,"Cn1cnnc1C[C@]1(c2ccc3c(c2)C(=O)N(c2cc(CNCC4CCC4)cc(Cl)n2)C3)C[C@@H](C#N)C1 (single isomer, unassigned) [Compound 245]",80 to 300
10,Cn1cnnc1CC1(c2ccc3c(c2)C(=O)N(c2cc(CNCc4nccs4)cc(Cl)n2)C3)COC1 [Compound 194],80 to 300
11,"CC(C)NCC(O)c1cc(N2Cc3ccc(C4(Cc5nncn5C)COC4)cc3C2=O)cc(C(F)(F)F)c1 (centres unmarked) [Compound 100, 2-(3-(1-Hydroxy-2-(isopropylamino)ethyl)-5-(trifluoromethyl)-phenyl)-6-(3-((4-methyl-4H-1,2,4-triazol-3-yl)methyl)oxetan-3-yl)isoindolin-1-one]",300 to 5000
12,"C[C@H]1CCCN(Cc2cc(N3CCCC3)cc(N3Cc4ccc(C5(Cc6nncn6C)COC5)cc4C3=O)c2)C1 [Compound 21, (S)-6-(3-((4-Methyl-4H-1,2,4-triazol-3-yl)methyl)oxetan-3-yl)-2-(3-((3-methyl-piperidin-1-yl)methyl)-5-(pyrrolidin-1-yl)phenyl)isoindolin-1-one]",300 to 5000
13,Cc1cc(CN2CCC[C@@H]2CO)cc(N2Cc3ccc(-c4ccc(F)cc4-c4nncn4C)cc3C2=O)n1 [Compound 286],80 to 300
14,Cc1cc(CN2CCC[C@H]2CO)cc(N2Cc3ccc(-c4ccc(F)cc4-c4nncn4C)cc3C2=O)n1 [Compound 288],300 to 5000
15,"Cn1cnnc1CC1(c2ccc3c(c2)C(=O)N(c2cc(CN4CCC(C(F)(F)F)CC4)cc(C(F)(F)F)n2)C3)COC1 [Compound 38, 6-(3-((4-Methyl-4H-1,2,4-triazol-3-yl)methyl)oxetan-3-yl)-2-(6-(trifluoro-methyl)-4-((4-(trifluoromethyl)piperidin-1-yl)methyl)pyridin-2-yl)isoindolin-1-one]",300 to 5000
16,CC(C)C(Cc1nncn1C)c1ccc2c(c1)C(=O)N(c1cc(CN3CCC[C@H](C)C3)cc(Cl)n1)C2 (some centres unmarked) [Compound 165],300 to 5000
17,C[C@H]1CCCN(Cc2cc(Cl)nc(N3Cc4ccc(CCc5nncn5C)cc4C3=O)c2)C1 [Compound 154],80 to 300
18,CC1CCCN1Cc1cc(Cl)nc(N2Cc3ccc(C4(Cc5nncn5C)COC4)cc3C2=O)c1 (centres unmarked) [Compound 200],300 to 5000
19,Cc1cc(CNCC2CC2)cc(N2Cc3ccc(-c4ccc(Cl)cc4-c4cc[nH]n4)cc3C2=O)n1 [Compound 271],80 to 300
20,"C[C@@H]1CN(Cc2cc(N3Cc4ccc(C5(Cc6nncn6C)COC5)cc4C3=O)nc(C(F)(F)F)c2)CCN1C [Compound 97, (R)-2-(4-((3,4-Dimethylpiperazin-1-yl)methyl)-6-(trifluoromethyl)pyridin-2-yl)-6-(3-((4-methyl-4H-1,2,4-triazol-3-yl)methyl)oxetan-3-yl)isoindolin-1-one]",300 to 5000
21,"Cn1cnnc1CC1(c2ccc3c(c2)C(=O)N(c2cc(CNCCOCCOCCOCCN)cc(Cl)n2)C3)COC1 [Compound 99, 2-(4-(13-Amino-5,8,11-trioxa-2-azatridecyl)-6-chloropyridin-2-yl)-6-(3-((4-methyl-4H-1,2,4-triazol-3-yl)methyl)oxetan-3-yl)isoindolin-1-one]",300 to 5000

# Now from value to compound:
row,IC50 [nM],Structure (SMILES)
1,80 to 300,"Cc1nc(CNCc2cc(Cl)nc(N3Cc4ccc(C5(Cc6nncn6C)COC5)cc4C3=O)c2)cs1 [Compound 129, 2-(6-Chloro-4-((((2-methylthiazol-4-yl)methyl)amino)methyl)-pyridin-2-yl)-6-(3-((4-methyl-4H-1,2,4-triazol-3-yl)methyl)oxetan-3-yl)isoindolin-1-one]"
2,80 to 300,"Cc1cc(CNC(CC(C)(C)O)C2CC2)cc(N2Cc3ccc(-c4ccc(F)cc4-c4nncn4C)cc3C2=O)n1 (centres unmarked) [Compound 338, 2-(4-(((1-Cyclopropyl-3-hydroxy-3-methylbutyl)amino)methyl)-6-methylpyridin-2-yl)-6-(4-fluoro-2-(4-methyl-4H-1,2,4-triazol-3-yl)phenyl)isoindolin-1-one]"
3,80 to 300,Cn1cnnc1CC1(c2ccc3c(c2)C(=O)N(c2cc(CNCC4(C(F)(F)F)CC4)cc(Cl)n2)C3)COC1 [Compound 204]
4,80 to 300,Cc1cc(CNCC2(CO)CC2)cc(N2Cc3ccc(-c4ccc(F)cc4-c4nncn4C)cc3C2=O)n1 [Compound 316]
5,80 to 300,Cn1cnnc1CC1(c2ccc3c(c2)C(=O)N(c2cc(CNCC4CCCCC4)cc(Cl)n2)C3)COC1 [Compound 153]
6,80 to 300,Cc1cc(CNCC2(O)COC2)cc(N2Cc3ccc(-c4ccc(F)cc4-c4nncn4C)cc3C2=O)n1 [Compound 291]
7,80 to 300,"CN(CCC(F)(F)F)Cc1cc(Cl)nc(N2Cc3ccc(C4(Cc5nncn5C)COC4)cc3C2=O)c1 [Compound 340, 2-(6-Chloro-4-((methyl(3,3,3-trifluoropropyl)amino)methyl)-pyridin-2-yl)-6-(3-((4-methyl-4H-1,2,4-triazol-3-yl)methyl)oxetan-3-yl)isoindolin-1-one]"
8,80 to 300,Cc1cc(CN[C@H](CO)C(C)C)cc(N2Cc3ccc(-c4ccc(F)cc4-c4nncn4C)cc3C2=O)n1 [Compound 297]
9,80 to 300,"COC1(CNCc2cc(C)nc(N3Cc4ccc(-c5ccc(F)cc5-c5nncn5C)cc4C3=O)c2)CC1 [Compound 137, 6-(4-Fluoro-2-(4-methyl-4H-1,2,4-triazol-3-yl)phenyl)-2-(4-((((1-methoxycyclopropyl)methyl)amino)methyl)-6-methylpyridin-2-yl)isoindolin-1-one]"
10,80 to 300,"C[C@@H](NC[C@H]1CCCO1)c1cc(Cl)nc(N2Cc3ccc(C4(Cc5nncn5C)COC4)cc3C2=O)c1 (single isomer, unassigned) [Compound 220]"
11,< 80,"CC1CCC(C)N(Cc2cc(N3Cc4ccc(C5(Cc6nncn6C)COC5)cc4C3=O)nc(C(F)(F)F)c2)C1 (single isomer, unassigned) [Compound 141]"
12,80 to 300,Cn1cnnc1CC1(c2ccc3c(c2)C(=O)N(c2cc(CN4CCC(C)(F)C4)cc(Cl)n2)C3)COC1 (centres unmarked) [Compound 184]
13,< 80,"C[C@H]1CCCN(Cc2cc(Cl)nc(N3Cc4ccc(-c5ccccc5-c5nncn5C)cc4C3=O)c2)C1 [Compound 118, (S)-2-(6-Chloro-4-((3-methylpiperidin-1-yl)methyl)pyridin-2-yl)-6-(2-(4-methyl-4H-1,2,4-triazol-3-yl)phenyl)isoindolin-1-one]"
14,< 80,"Cc1cc(CNCC2CC2)cc(N2Cc3ccc(-c4ccc(F)cc4-c4nocc4C)cc3C2=O)n1 [Compound 289, 2-(4-(((Cyclopropylmethyl)amino)methyl)-6-methylpyridin-2-yl)-6-(4-fluoro-2-(4-methylisoxazol-3-yl)phenyl)isoindolin-1-one]"
15,< 80,Cc1cc(CN2CCC3(CCC3)C2)cc(N2Cc3ccc(-c4ccc(F)cc4-c4nncn4C)cc3C2=O)n1 [Compound 258]
16,80 to 300,Cc1nc(CNCC2CC2)cc(N2Cc3ccc(C4(Cc5nncn5C)COC4)cc3C2=O)n1 [Compound 186]
17,80 to 300,"C[C@H]1CCCN(Cc2cc(Cl)nc(N3Cc4ccc([C@@H](Cc5nncn5C)C(F)(F)F)cc4C3=O)c2)C1 (single isomer, unassigned) [Compound 180]"
18,80 to 300,"C[C@H](NCc1ccccn1)c1cc(Cl)nc(N2Cc3ccc(C4(Cc5nncn5C)COC4)cc3C2=O)c1 (single isomer, unassigned) [Compound 242]"
19,80 to 300,Cn1cnnc1CC1(c2ccc3c(c2)C(=O)N(c2cc(CN4CCCC(O)CC4)cc(Cl)n2)C3)COC1 (centres unmarked) [Compound 174]
20,80 to 300,Cc1cc(CNCC2CC2)cc(N2Cc3ccc(-c4ccc(C(F)(F)F)cc4-c4nncn4C)cc3C2=O)n1 [Compound 272]
